ChEMBL document CHEMBL1128929, “A novel nitro-substituted seco-CI: Application as a reductively activated adept prodrug” (Bioorg Med Chem Lett, 1996)
pIC50: −log10 of the molar value.

How the values were obtained:
[1] = Compound was evaluated for its inhibitory activity against UV4 cell in the presence of drug and NADH.; format: functional, cell-based, Cricetulus griseus
[2] = Ratio of IC50 (drug alone)/IC50(drug+NADH+enzyme); format: functional
[3] = Compound was evaluated for its inhibitory activity against UV4 cell in the presence of drug along with NADH and enzyme(Escherichia coli B nitroreductase); format: functional, cell-based, Cricetulus griseus
[4] = Compound was evaluated for its inhibitory activity against UV4 cell in the presence of drug alone.; format: functional, cell-based, Cricetulus griseus

Compound | pIC50 [1] | Ratio [2] | pIC50 [3] | pIC50 [4]
COc1cc2cc(C(=O)N3CC(CCl)c4ccc(N)cc43)[nH]c2c(OC)c1OC (configuration not stated) | 7.58 | 23.2 | 7.56 | 7.63
COc1cc2cc(C(=O)N3CC(CCl)c4ccc([N+](=O)[O-])cc43)[nH]c2c(OC)c1OC (configuration not stated) | 6.63 | 402 | 8.19 | 5.64
COc1cc2cc(C(=O)N3CC(CCl)c4ccc(NC(=O)OCc5ccc([N+](=O)[O-])cc5)cc43)[nH]c2c(OC)c1OC (configuration not stated) | 4.95 | 0.9 | 6.22 | 4.82
